The target of the assay is T1, mPDE10A7 (Mus musculus, UniProt Q8CA95).
T1 sequence (Q8CA95 446-763 limits assumed): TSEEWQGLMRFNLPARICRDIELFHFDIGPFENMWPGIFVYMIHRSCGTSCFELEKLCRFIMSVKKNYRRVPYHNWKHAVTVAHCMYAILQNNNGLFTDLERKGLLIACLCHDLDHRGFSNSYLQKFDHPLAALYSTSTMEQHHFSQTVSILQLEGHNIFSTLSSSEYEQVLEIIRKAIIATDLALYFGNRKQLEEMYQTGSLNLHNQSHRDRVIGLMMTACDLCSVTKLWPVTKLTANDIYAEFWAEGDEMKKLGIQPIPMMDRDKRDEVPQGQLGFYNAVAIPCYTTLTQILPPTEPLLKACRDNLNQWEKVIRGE
Briefly: mPDE10A7 enzyme inhibition (IMAP fluorescence polarization, fluorescein labeled cAMP or cGMP). The class given is biochemical. Here is the method: mPDE10A7 Enzyme Activity and Inhibition
To analyze the enzyme activity, 5 μL of serial diluted mPDE10A7 containing lysate were incubated with equal volumes of diluted (100-fold) fluorescein labeled cAMP or cGMP for 30 minutes in MDC HE 96-well assay plates at room temperature. Both the enzyme and the substrates were diluted in the following assay buffer: Tris/HCl (pH 8.0) 50 mM, MgCl2 5 mM, 2-mercaptoethanol 4 mM, BSA 0.33 mg/mL. After incubation, the reaction was stopped by adding 20 μL of diluted (400-fold) binding reagents and was incubated for an hour at room temperature. The plates were counted in an Analyst GT (Molecular Devices) for fluorescence polarization. An IMAP Assay kit (Molecular Device) was used to assess enzyme properties of mmPDE10A7. Data were analyzed with SoftMax Pro.
To check the inhibition profile, 10 μL of serial diluted compounds were incubated with 30 μl of diluted PDE enzymes in a 96-well polystyrene assay plate for 30 minutes at room temperature. After incubation, 5 μL of the compound-enzyme mixture were aliquoted into a MDC HE black plate, mixed with 5 μl of 100-fold diluted fluorescein labeled substrates (cAMP or cGMP), and incubated for 30 minutes at room temperature. The reaction was stopped by adding 20 μL of diluted binding reagents and counted in an Analyst GT for fluorescence polarization. The data were analyzed with SoftMax Pro.

pIC50: −log10 of the molar value.

Regarding `COCCOc1cccc2c1CCN(c1ncnc3cc(OC)c(OC)cc13)C2=O` [2-(6,7-dimethoxyquinazolin-4-yl)-5-(2-methoxyethoxy)-3,4-dihydroisoquinoline-1 (2H)-one], the pIC50 is 6.66.

(Values after patent publication US20070093515A1, “Phosphodiesterase 10 inhibitors” (priority 2005, published 2007).)
